Each structure is given as a SMILES string. “And” between values parts separate entries of the source, which are not always exact repeats. Identical values can stand only once. The source made the active and inactive calls.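 Rule for the calls: active = AC50 no more than tenfold above the top dose tested, or full inhibition at every dose with a flat fit (cut at about 19 µM in these data); inconclusive = flat curve fit with inhibition between 30% and 70%, or poor fit; inactive = AC50 more than tenfold above the top dose tested.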

In the assay the test system is HMLE_sh_eGFP viability, CellTiter-Glo luminescence, 72 h. Briefly: viability loss of HMLE_sh_eGFP cells – cell-based, luminescence, counter-screen for HMLE_sh_ECad selective toxicity project, dose response (AID 463074).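 Note: counterscreen control line to flag general toxicity for the HMLE_sh_ECad screen; potency for loss of viability as luminescence drops below DMSO wells.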
`CC12CCC(C/C1=N\N=C1\NC(=O)/C(=C\c3ccc(Cl)cc3)S1)C2(C)C` (stereo unspecified): the concentration at half-maximal activity (AC50) is 3.25 µM. Then `CCCCNc1c(-c2ccc(SC3CCCCC3)c(OC)c2)nc2ccc(C)cn12`, with 3.49 µM; and `O=C(Nc1ccn(Cc2ccccc2F)n1)c1ccc(COc2ccc(Cl)cc2Cl)o1`, with > 19.5 µM (inactive).

`COc1ccc(-c2nn(-c3ccccc3)cc2/C=C2/SC(=S)N(CCC(=O)O)C2=O)c(C)c1`: the concentration at half-maximal activity (AC50) is 8.18 µM. Then `O=C(C[n+]1ccccc1)NNc1ccccc1`, with 1.78 µM. Turning to `Cc1cccc(CN2C(=O)/C(=C\c3ccc(C(=O)NCCCN4CCN(C)CC4)cc3)Oc3ccccc32)c1`, the half-maximal activity concentration (AC50) was 3.62 µM. For `CC1=C(C(=O)OC2CCCCCCC2)C(c2cc3c(cc2Br)OCO3)CC(=O)N1` (stereo unspecified), the concentration at half-maximal activity (AC50) was 2.57 µM. Then `Cc1ccccc1-n1c(SCC(=O)N/N=C/C=C/c2ccccc2[N+](=O)[O-])nc2ccccc2c1=O`, with > 19.5 µM (inactive); and `Cc1ccc(SC[C@H](C)CN2CC[C@H](C(C)(C)C)CCC2=O)cc1`, with 6.63 µM. In the case of `O=C(NCC1CCCCC1)c1cc2ccccc2cc1O`, the AC50 was 7.79 µM. For the compound `Brc1ccc2[nH]c3c(N4CCc5ccccc5C4)ncnc3c2c1`, the AC50 is 17.3 µM.

On to `CNC[C@H](CC1CCCCC1)NC[C@H](CO)NCCc1cccc(C(F)(F)F)c1`, for which the AC50 was 6.71 µM. Turning to `CCC(C)Sc1cccc(-c2nc3ccc(C)cn3c2NCc2ccccc2)c1` (stereo unspecified), the concentration at half-maximal activity (AC50) was 2.88 µM.

On to `CC(C)(C)c1ccc(/C=C(\c2nc3ccccc3[nH]2)S(=O)(=O)c2ccccc2)cc1`, for which the AC50 was 1.42 µM. For the compound `O=C(N/N=C/c1cc(Cl)cc([N+](=O)[O-])c1O)NC12CC3CC(CC(C3)C1)C2`, the AC50 is 4.59 µM.

For the compound `C=C1/C(=C\C=C2/CCC[C@]3(C)[C@@H]([C@H](C)/C=C/[C@@H](O)C4CC4)CC[C@@H]23)C[C@@H](O)C[C@@H]1O`, the AC50 was 6.49 µM.

As to `COc1cccc(/C=C/c2nc(C#N)c(NCC(C)C)o2)c1`, the AC50 was 5.06 µM. Regarding `COc1cc(C#Cc2c(-c3cncn3C)n(C)c3ccc(-c4ccc(OC)nc4)cc23)cc(OC)c1`, the concentration at half-maximal activity (AC50) was 6.61 µM. As to `CCOC(=O)c1c(NC(=O)C(=O)N/N=C/c2ccccc2O)sc2c1CCCCC2`, the half-maximal activity concentration (AC50) was 2.84 µM.

For `CCOC(=O)/C(=N/Nc1ccccc1)c1csc(Nc2ccccc2)n1`, the AC50 was 3.69 µM.

As to `CCC(=O)Nc1ccc(C(=O)Cn2ncc(Cl)c(Cl)c2=O)cc1`, the half-maximal activity concentration (AC50) was 7.77 µM.

As for `Cn1nnnc1Sc1ncnc2scc(-c3cc4ccccc4o3)c12`, the AC50 was 1.17 µM. Then `Cc1cc(N2CCN(C)CC2)nc2ccc(NC(=S)N3CCN(c4ccc(F)cc4)CC3)cc12`, with 5.94 µM; and `CCC/C(=C1/c2ccccc2C(=O)N1c1ccccc1)c1ccc2c(c1)OCCO2`, with 4.08 µM; and `Cc1cccc(-c2nc(C#N)c(NC3CCCCC3)o2)c1`, with 19.4 µM. Then `COc1cccc(Cn2nnc(C(=O)Nc3cc(Cl)ccc3OC)c2N)c1`, with 0.935 µM. Then `Cn1nc(-c2ccc(Cl)cc2)c2cc(C(=O)NCCCN3CCOCC3)sc21`, with 5.94 µM. Turning to `CCN(CC)CCOc1ccc(/C(=C(/Cl)c2ccccc2)c2ccccc2)cc1`, the AC50 is 0.992 µM and 2.55 µM. Then `CC(=O)c1ccc(NC(=O)c2ccc([N+](=O)[O-])o2)cc1`, with 7.8 µM. Turning to `O=[N+]([O-])c1ccc(Cl)c([N+](=O)[O-])c1`, the concentration at half-maximal activity (AC50) was 5.62 µM. On to `Cc1ccc(-c2nc(Nc3cccc(O)c3)c3ccccc3n2)cc1`, for which the AC50 is 7.23 µM. Then `Clc1ccc2nnnc(-c3ccccc3)c2c1`, with 4.26 µM. Then `CCOC(=O)C1=C(C)N2C(=C(C#N)[C@@H]1c1ccc(C(=O)OC)cc1)SC[C@@]2(O)C(C)(C)C`, with 4.79 µM; and `COc1cc(C(=O)N/N=C(\Cc2ncc[nH]2)c2ccccc2)cc(OC)c1OC`, with 6.39 µM. Consider `Cc1ccc(-c2nc(NCc3ccco3)c3ccccc3n2)cc1`, for which the AC50 is 12.4 µM.

Take `O=C1C=C(c2ccc(Cl)c(C(F)(F)F)c2)C[C@@H](c2ccc3c(c2)OCO3)C1`: the half-maximal activity concentration (AC50) was 6.37 µM. Then `COc1ccc(-c2sc3ccccc3c2/C=C/c2ccncc2)cc1`, with 6.68 µM; and `COc1ccc(/C=C/C(=O)c2ccc([N+](=O)[O-])o2)cc1`, with 2.87 µM; and `Cc1nc([N+](=O)[O-])c(Br)n1CC(=O)c1ccc2ccccc2c1`, with 6.46 µM.

With `Cc1cccc(NC(=O)c2nc[nH]c2C(=O)NCCCNC(=O)c2[nH]cnc2C(=O)Nc2cccc(C)c2)c1`, the half-maximal activity concentration (AC50) is 6.71 µM. `O=c1cc(N2CCCCC2)c(-c2ccccc2)nn1Cc1c(Cl)cccc1Cl`: the concentration at half-maximal activity (AC50) is 5.72 µM.

As for `O=[N+]([O-])c1ccc(S(=O)(=O)Nc2ccc(-c3csc(-c4ccccc4)n3)cc2)cc1`, the half-maximal activity concentration (AC50) is 4.06 µM. On to `O=c1cc(NS(=O)(=O)c2ccccc2)nc(SCc2ccc(Cl)cc2)[nH]1`, for which the AC50 was 5.9 µM.

Regarding `CC(C)(C)[C@H](N)C(=O)N[C@H]1CCC2C3CC=C4C[C@@H](O)CC[C@]4(C)C3CC[C@@]21C` (stereo partly specified), the AC50 is 7.74 µM. As to `O=C(/C=C/c1ccc(F)cc1)c1ccccc1Br`, the AC50 is 3.57 µM. Turning to `COCCNc1nnc(SC(C)C(=O)Nc2ccc(-c3nc4ccc(C)cc4s3)cc2)s1` (stereo unspecified), the AC50 was 10.5 µM.

In the case of `Cc1ccc(-n2c(-c3cccs3)nc3ccccc3c2=O)cc1`, the AC50 was 3.36 µM. Then `Cc1ccccc1NCc1ccc([N+](=O)[O-])s1`, with 10.6 µM; and `COc1ccc(CN(CCC(c2ccccc2)c2ccc(OC(C)C)cc2)C(=O)CCl)cc1OC` (stereo unspecified), with 1.67 µM.

Consider `Cc1ccn2c(NC3CCCCC3)c(-c3cccc(SC4CCCCC4)c3)nc2c1`, for which the concentration at half-maximal activity (AC50) was 3.86 µM. Turning to `CCCn1c(=O)c(C(=O)NNS(=O)(=O)c2ccc(Cl)cc2)c(O)c2ccccc21`, the AC50 was 2.03 µM. Then `COC(=O)c1cc(=O)n(Cc2ccc(F)cc2)c(=Nc2ccccc2)s1`, with 5.87 µM; and `O=C(/C=C/c1ccncc1)c1ccc(NC(=O)c2ccccc2F)cc1`, with 4.38 µM; and `N#C/C(=C/c1cn(-c2ccccc2)nc1-c1cccc(OCc2ccccc2)c1)C(=O)NCCCn1ccnc1`, with 6.25 µM. Then `Cc1noc(C)c1CSc1nc2ccccc2nc1NS(=O)(=O)c1ccc(Cl)cc1`, with 1.79 µM; and `CC(C)=CCc1c(O)cc2c(=O)c3ccc(O)cc3oc2c1O`, with 6.87 µM.

In the case of `CC[C@@H]1CC=C[C@H]2[C@H]1C(=O)N(Cc1ccccc1)[C@H]2c1ccoc1`, the AC50 was 7.03 µM. Then `CCOC(=O)N1CCN(c2ccc(C(=O)c3cccc(F)c3)cc2)CC1`, with > 19.5 µM (inactive); and `Oc1ccc(N=Nc2c(O)ccc3ccccc23)cc1`, with 5.36 µM. Take `O=c1[nH]c2ccccc2n1C1CCN(CCCC(c2ccc(F)cc2)c2ccc(F)cc2)CC1`: the half-maximal activity concentration (AC50) was 6.27 µM. Regarding `C/C(=N\NC(=O)c1nnn(-c2nonc2N)c1CN1CCc2ccccc21)c1ccccc1O`, the AC50 was 3.21 µM.

As for `CCCOc1ccc(C(=O)C(CN2CCCC2)c2ccccc2)cc1` (stereo unspecified), the AC50 was 3.3 µM. Consider `CC(=O)c1ccc(N2CCN(S(=O)(=O)c3cc(-c4cc(C)no4)ccc3C(C)C)CC2)cc1`, for which the AC50 was 0.205 µM. For `Cc1cc(C)n(Cc2ccc(NC(=O)c3ccc(COc4ccccc4Br)cc3)cc2)n1`, the half-maximal activity concentration (AC50) is 3.03 µM. Then `O=C(NC(=O)N1CCN(c2cccc(Cl)c2)CC1)c1ccc(Cl)cc1`, with 0.573 µM. Take `COc1cccc(-c2sc3ccccc3c2-c2ccc(OCCN(C)C)cc2)c1`: the half-maximal activity concentration (AC50) was 3.34 µM.

The values are drawn from PubChem BioAssay AID463074 (Broad Institute, 2010).
